Reference: publication PMC3196554 (Chemical research in toxicology, 2010)
Like-named read-outs stand apart in the source and are kept apart here.

Tests used:
[1] = cited from earlier work
[2] = for Amount in urine collected for 10 h after consumption of cooked beef: Mean ± SD of 3 independent measurements; for % Dose in urine collected for 10 h after consumption of cooked beef: metabolites as % of dose of parent MeIQx or PhIP
P450 1A2 [3] = settings: subjects given furafylline prior to cooked beef; cited from earlier work
[4] = 14C-PhIP; cited from earlier work
human liver UGTs = settings: human liver microsomes fortified with UDPGA; cited from earlier work
[5] = Acid hydrolysis of conjugates; type: physicochemical; settings: 50% (v/v) glacial acetic acid or 1 N HCl, 80 °C for 8 h
P450 1A2 [6] = settings: human hepatocytes pretreated with furafylline; cited from earlier work

Cn1c(N)nc2ncc(-c3ccccc3)cc21 [PhIP, 2-amino-1-methyl-6-phenylimidazo[4,5-b]pyridine]
pKa [1]: 5.65 | Amount in urine collected for 10 h after consumption of cooked beef ([2]; Subject S-001): 37.1 ± 3.3 ng | % Dose in urine collected for 10 h after consumption of cooked beef ([2]; Subject S-001): 0.8 % Dose | Amount in urine collected for 10 h after consumption of cooked beef ([2]; Subject S-003): 6.5 ± 1.1 ng | % Dose in urine collected for 10 h after consumption of cooked beef ([2]; Subject S-003): 0.1 % Dose | Amount in urine collected for 10 h after consumption of cooked beef ([2]; Subject S-005): 11.4 ± 0.9 ng | % Dose in urine collected for 10 h after consumption of cooked beef ([2]; Subject S-005): 0.2 % Dose | Amount in urine collected for 10 h after consumption of cooked beef ([2]; Subject S-008): 9.5 ± 0.6 ng | % Dose in urine collected for 10 h after consumption of cooked beef ([2]; Subject S-008): 0.2 % Dose | Amount in urine collected for 10 h after consumption of cooked beef ([2]; Subject S-009): 18.5 ± 1.6 ng | % Dose in urine collected for 10 h after consumption of cooked beef ([2]; Subject S-009): 0.4 % Dose | Amount in urine collected for 10 h after consumption of cooked beef ([2]; Subject S-012): 17.0 ± 0.7 ng | % Dose in urine collected for 10 h after consumption of cooked beef ([2]; Subject S-012): 0.3 % Dose | Amount in urine collected for 10 h after consumption of cooked beef ([2]; Subject S-013): 14.1 ± 1.2 ng | % Dose in urine collected for 10 h after consumption of cooked beef ([2]; Subject S-013): 0.3 % Dose | Amount in urine collected for 10 h after consumption of cooked beef ([2]; Subject S-014): 8.9 ± 0.6 ng | % Dose in urine collected for 10 h after consumption of cooked beef ([2]; Subject S-014): 0.2 % Dose | Amount in urine collected for 10 h after consumption of cooked beef ([2]; Subject S-015): 8.2 ± 1.0 ng | % Dose in urine collected for 10 h after consumption of cooked beef ([2]; Subject S-015): 0.2 % Dose | Amount in urine collected for 10 h after consumption of cooked beef ([2]; Subject S-020): 18.9 ± 1.6 ng | % Dose in urine collected for 10 h after consumption of cooked beef ([2]; Subject S-020): 0.4 % Dose | Share of elimination accounted for by P450 1A2 (P450 1A2 [3]): 70% | Proportion of the dose eliminated in urine within 24 h as isomeric HON-PhIP-N-glucuronide conjugates [4]: approximately 50%

Cn1c(=N)n([C@@H]2O[C@H](C(=O)O)[C@@H](O)[C@H](O)[C@H]2O)c2ncc(-c3ccccc3)cc21 [PhIP-N3-Gl, N3-(ß-1-glucosidurony1)-2-amino-1-methy1-6-phenylimidazo[4,5-b]pyridine]
Amount present in urine samples ([2]; urine after meat consumption, LOQ ~50 pg/mL): below the LOQ | Amount formed relative to PhIP-N^2-Gl (human liver UGTs): 10 fold | Behaviour under acid hydrolysis conditions [5]: stable | Proportion of the conjugate that underwent hydrolysis [5]: < 5%

Cc1nc2c([nH]1)c(=O)n(C)c(=O)n2Cc1ccco1 [furafylline]
Inhibition of formation of 8-CH2OH-IQx, IQx-8-COOH and glucuronide conjugates of HONH-MeIQx and HONH-PhIP (P450 1A2 [6]): inhibited to a similar degree
